Assay results taken from patent US6753409B1, “STABLE NON-HYGROSCOPIC CRYSTALLINE FORM OF N-[N-[N-(4-(PIPERIDIN-4-YL)BUTANOYL)-N-ETHYLGLYCYL]ASPARTYL]-L-β-CYCLOHEXYL ALANINE AMIDE, INTERMEDIATES THEREOF, AND PREPARATION THEREOF AND OF ANTITHROMBOTIC AZACYCLOALKYLALKANOYL PEPTIDES AND PSEUDOPEPTIDES” (Aventis Pharmaceuticals Inc., priority 1996, dated 2004).
Where two headings read alike, the source gives them in different places.

Tests used:
[1] = system: fixed activated platelets; assay: Platelet Aggregation Assay (fixed-activated platelets, aggregation initiated by human fibrinogen); type: cell-based; details: human fibrinogen 250 μg/mL, read-out: Inhibition of Fixed Platelet Aggregation (IC50 μM)
Description: (§1) The Platelet Aggregation Assay is based on that described in Blood 66 (4), 946-952 (1985). The Fibrinogen-Binding Assay is essentially that of Ruggeri, Z. M., et al., Proc. Nail. Acad. Sci. USA 83, 5708-5712 (1986) and Plow, E. F., et al., Proc. Natl. Acad Sci., USA 82, 8057-8061 (1985). The Inhibition of ADP-lndticed ex-vivo Platelet Aggregation assay is based on that of Zucker, “Platelet Aggregation Measured by the Photoelectric Method”, Methods in Enzymology 169, 117-133 (1989).
Platelets are isolated from human platelet concentrates using the gel-filtration technique as described by Marguerie, G. A. et al., J. Biol. Chem. 254, 5357-5363 (1979) and Ruggeri, Z. M. et al., J. Clin. Invest. 72, 1-12 (1983). The platelets are suspended at a concentration of 2×10^8 cells/mL in a modified calcium-free Tyrode's buffer containing 127 mM sodium chloride, 2 mM magnesium chloride, 0.42 mM Na2HPO4, 11.9 mM NaHCO3, 2.9 mM KCl, 5.5 mM glucose, 10 mM HEPES, at a pH of 7.35 and 0.35% human serum albumin (HSA). […]
The fixed activated platelets are incubated with a selected dose of the compound to be tested for platelet aggregation inhibition for one minute andfaggregation initiated by addition of human fibrinogen to a final concentration of 250 μg/mL. […] The extent of inhibition of aggregation is expressed as the percentage of the rate of aggregation observed in the absence of inhibitor. […]

[2] = system: ADP-induced platelet aggregation in platelet rich plasma; assay: Inhibition of ADP-Induced ex-vivo Platelet Aggregation after oral administration; type: in vivo, mongrel dogs; details: dog, 5 mg/kg; for % Inhibition of ex-vivo Platelet Aggregation After Oral Administration, 1 h: 1 h after dosing; for % Inhibition of ex-vivo Platelet Aggregation After Oral Administration, 3 h: 3 h after dosing
Description: as §1
Control blood samples are obtained 5-10 minutes prior to administration of a test compound in mongrel dogs weighing from 10 to 20 Kg. The compound is administered intragasticly, via aqueous gavage, or orally, via gelatin capsule. Blood samples (5 ml) are then obtained at 30 minute intervals for 3 hours, and at 6, 12, and 24 hours after dosing. Each blood sample is obtained by venipuncture of the cephalic vein and is collected directly into a plastic syringe containing one part 3.8% trisodium citrate to nine parts blood.
The blood samples are centrifuged at 1000 rpm for 10 minutes to obtain platelet rich plasma (PRP). After removal of the PRP, the sample is centrifuged for an additional 10 minutes at 2000 rpm to obtain platelet poor plasma (PPP). Platelet count in the PRP is determined by using a Coulter Counter (Coulter Electronics, Hialeah, Fla.). If the concentration of platelets in the PRP is greater than 300,000 platelets/μL, then the PRP is diluted with PPP to adjust the platelet count to 300,000 platelets/μL. Aliquots of PRP (250 μL) are then placed in siliconized glass cuvettes (7.25×55 mm, Bio/Data Corp., Horsham, Pa.). Epinephrine (final concentration of 1 μM) is then added to the PRP, which is incubated for one minute at 37° C. A stimulator of platelet aggregation ADP at a final concentration of 10 μM, is then added to the PRP. Platelet aggregation is monitored spectrophotometrically utilizing a light transmission aggregometer (Bio/Data Platelet Aggregation Profiler, Model PAP-4, Bio/Data Corp., Horsham, Pa.). For the testing of a compound, the rate of change (slope) of light transmittance and the maximum light transmittance (maximum aggregation) is recorded in duplicate. Platelet aggregation data are reported as the percent decrease (mean±SEM) in slope or maximum aggregation as compared to data obtained from control PRP, which is prepared from blood samples obtained prior to administration of the test compound.

[3] = Isothermal microcalorimetry of solid state form conversion (Thermal Activity Monitor); type: physicochemical; details: for thermal activity (form conversion) on exposure to humidity: 80% RH (saturated KCl solution), over 30 hours; for time for conversion of hygroscopic to non-hygroscopic form: 80% RH
Protocol: Isothermal microcalorimetry experiments on hygroscopic and non-hygroscopic crystalline forms of N-[N-[N-(4-piperdin-4-yl)butanoyl)-N-ethylglycyl]-(L)-aspartyl]-(L)-β-cyclohexylalanine amide are performed on a Thermometric® Thermal Activity Monitor (TAM). Solid state conversions of the different chrystalline forms are studied by exposing the forms to different humidities or solvent vapors at different temperatures. The saturated salt solutions used to obtain different humidities were: KCl (80% RH), NaCl (75% RH), and NaBr (65% RH). Approximately 100 mg quantities of the forms are weighed into a TAM glass ampule and a microhygrostate containing a saturated salt solution (with excess solid) or an organic solvent is placed inside the ampule. The ampule is sealed, equilibrated to the temperature of the experiment, and lowered into the measuring position in the TAM. An identical system containing washed sea sand, in place of the form subject to testing, is placed on the reference side. Output power (μW) is measured as a function of time (FIGS. 6-8).

[4] = Moisture sorption isotherms (VTI MB300G moisture balance); type: physicochemical; details: 25° C.; for desorption to original weight %: decreasing RH
Protocol: Moisture Sorption Isotherms of hygroscopic and non-hygroscopic crystalline forms of N-[N-[N-(4-piperdin-4-yl)butanoyl)-N-ethylglycyl]-(L)-aspartyl]-(L)-β-cyclohexylalanine amide are obtained on a VTI MB300G moisture balance. The experiments are conducted either by subjecting approximately 15 mg of the subject crystalline form to increasing and decreasing steps of % RH and following the weight gain (at each equilibrium step) as a function of % RH (FIG. 9) or by holding the subject crystalline form at constant humidity and following the weight gain as a function of time.

[5] = Hygroscopicity and physical stability of the material prepared according to WO95/10295 (statement); type: physicochemical

Which results are given for `O=C(O)C[C@H](NC(=O)CNC(=O)CCCC1CCNCC1)C(=O)N[C@@H](Cc1c[nH]c2ccccc12)C(=O)O` [Compound of EPA ‘481, 4-4(piperidyl)butanoyl glycyl aspartyl tryptophan, reference compound]?
IC50 [1]: 0.047 µM; % Inhibition of ex-vivo Platelet Aggregation After Oral Administration, 1 h [2]: 53%; % Inhibition of ex-vivo Platelet Aggregation After Oral Administration, 3 h [2]: <20%

With `CCN(CC(=O)N[C@@H](CC(=O)O)C(=O)N[C@@H](CC1CCCCC1)C(N)=O)C(=O)CCCC1CCNCC1` [hygroscopic crystalline form] as the compound, how does the “effect of relative humidity on rate of conversion to non-hygroscopic form” value ([3]; 60° C., 65% RH, 75% RH, 80% RH and 100% RH) read?
Its value is “higher relative humidities produce a faster conversion”.

What about the “thermal activity (form conversion) on exposure to humidity” value ([3]; 40° C., listed as hygroscopic form) of the same compound?
Its value is “strong exothermic event takes place”.

And the “time for conversion of hygroscopic to non-hygroscopic form” value (“time … to non-hygroscopic form” for short) ([3]; 40° C.)?
The value was “approximately 24 hours”.

What about the “time … to non-hygroscopic form” value ([3]; 50° C.) of the same compound?
The value was roughly 6.5 h.

What about the “time … to non-hygroscopic form” value ([3]; 60° C.) of the same compound?
Its value is roughly 3 h.

What about the liquification during conversion ([3]; 100% RH, 60° C.) of the same compound?
Its liquification during conversion is “without the liquification”.

And the “thermal activity (form conversion) on exposure to methanol vapors” value ([3]; methanol vapors, 40° C.)?
Its value is “no exothermic conversion event takes place”.

What about the “desorption to original weight %” value ([4]; listed as hygroscopic form) of the same compound?
Its value is “does not desorb to its original weight %”.

What about the “% weight gain vs. % RH (water uptake)” value ([4]; increasing RH, more pronounced above 60% RH) of the same compound?
Its value is “picks up more water than the non-hygroscopic form as the RH increases”.

Which IC50 ([1]; Platelet) does the source give for `CCN(CC(=O)N[C@@H](CC(=O)O)C(=O)N[C@@H](CC1CCCCC1)C(N)=O)C(=O)CCCC1CCNCC1` [Example 15] here?
The IC50 was 0.097 µM.

And the “% Inhibition of ex-vivo Platelet Aggregation After Oral Administration, 1 h” value [2]?
Its value is 100%.

And the “% Inhibition of ex-vivo Platelet Aggregation After Oral Administration, 3 h” value [2]?
The value was 100%.

And the “% Inhibition of ex-vivo Platelet Aggregation After Oral Administration, 6 h” value ([2]; 6 h after dosing)?
Its value is 100%.

And the “% Inhibition of ex-vivo Platelet Aggregation After Oral Administration, 12 h” value ([2]; 12 h after dosing)?
Its value is 98%.

And the “% Inhibition of ex-vivo Platelet Aggregation After Oral Administration, 24 h” value ([2]; 24 h after dosing)?
Its value is 50%.

For `CCN(CC(=O)N[C@@H](CC(=O)O)C(=O)N[C@@H](CC1CCCCC1)C(N)=O)C(=O)CCCC1CCNCC1` [N-[N-[N-(4-(piperdin-4-yl)butanoyl)-N-ethylglycyl]-(L)-aspartyl]-(L)-β-cyclohexylalanine amide], which “hygroscopicity and physical stability” value [5] is on record?
Its value is “hygroscopic and is physically unstable as it absorbs moisture”.

With `CCN(CC(=O)N[C@@H](CC(=O)O)C(=O)N[C@@H](CC1CCCCC1)C(N)=O)C(=O)CCCC1CCNCC1` [non-hygroscopic form] as the compound, how does the “thermal activity (form conversion) on exposure to humidity” value ([3]; 40° C.) read?
The value was “no exothermic conversion event takes place”.

What about the “desorption to original weight %” value [4] of the same compound?
Its value is “does desorb to its original weight %”.
